# What was measured:
# [1] = target: T1, Aromatase (Homo sapiens, UniProt P11511); experiment: Inhibition of aromatase (unknown origin) at 12.5 uM relative to control
# T1 sequence (P11511 whole entry): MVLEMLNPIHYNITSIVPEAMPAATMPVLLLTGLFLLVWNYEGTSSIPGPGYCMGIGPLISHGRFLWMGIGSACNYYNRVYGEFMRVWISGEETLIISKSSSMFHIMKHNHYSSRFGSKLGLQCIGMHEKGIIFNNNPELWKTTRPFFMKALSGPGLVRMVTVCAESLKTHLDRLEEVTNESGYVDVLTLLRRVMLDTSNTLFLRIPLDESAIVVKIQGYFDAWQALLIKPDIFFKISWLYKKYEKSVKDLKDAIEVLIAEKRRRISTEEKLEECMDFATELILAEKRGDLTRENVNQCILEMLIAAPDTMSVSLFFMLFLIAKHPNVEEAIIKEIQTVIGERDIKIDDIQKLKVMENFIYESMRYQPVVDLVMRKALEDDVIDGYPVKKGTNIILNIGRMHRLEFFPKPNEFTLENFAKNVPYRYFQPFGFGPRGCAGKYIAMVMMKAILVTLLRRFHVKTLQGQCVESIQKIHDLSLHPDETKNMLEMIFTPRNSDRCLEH
# [2] = tested on: HepG2; experiment: Cytotoxicity against human HepG2 cells assessed as reduction in cell viability incubated for 48 hrs by MTT assay; assay type: functional, cell-based; conditions: HepG2, 48 h
# [3] = tested on: T47D; experiment: Cytotoxicity against human T47D cells assessed as reduction in cell viability incubated for 48 hrs by MTT assay; assay type: functional, cell-based
# [4] = tested on: K562; experiment: Cytotoxicity against human K562 cells assessed as reduction in cell viability incubated for 48 hrs by MTT assay; assay type: functional, cell-based; conditions: K562, 48 h
# [5] = tested on: HeLa; experiment: Cytotoxicity against human HeLa cells assessed as reduction in cell viability incubated for 48 hrs by MTT assay; assay type: functional, cell-based
# [6] = tested on: HuCCT-1; experiment: Cytotoxicity against human HuCC-A1 cells assessed as reduction in cell viability incubated for 48 hrs by MTT assay; assay type: functional, cell-based; conditions: HuCCT-1, 48 h
# [7] = tested on: A549; experiment: Cytotoxicity against human A549 cells assessed as reduction in cell viability incubated for 48 hrs by MTT assay; assay type: functional, cell-based; conditions: A549, 48 h
# [8] = Cytotoxicity against human NCI-H69AR cells assessed as reduction in cell viability incubated for 48 hrs by MTT assay; assay type: functional, cell-based
# [9] = tested on: MRC5; experiment: Cytotoxicity against human MRC5 cells assessed as reduction in cell viability incubated for 48 hrs by MTT assay; assay type: cell-based; conditions: MRC5, 48 h
# [10] = tested on: MDA-MB-231; experiment: Cytotoxicity against human MDA-MB-231 cells assessed as reduction in cell viability incubated for 48 hrs by MTT assay; assay type: functional, cell-based; conditions: MDA-MB-231, 48 h
# [11] = target: T1, Aromatase; experiment: Inhibition of aromatase (unknown origin)
inhibition at 12.5 µM [1] [%],SMILES,IC50 [11] [µM],further results
44,CC(C)c1ccc2c(c1)CC[C@H]1C(C)(C)CCC[C@]21C,,
42,CC(C)C1=CC(=O)C2=C(CC[C@H]3C(C)(C)CCC[C@]23C)C1=O,,
31,C=C[C@]1(C)C=C2[C@H](O)C[C@H]3C(C)(C)CCC[C@]3(C)[C@H]2CC1,,
30,CC(C)c1ccc2c(c1)[C@H](O)C[C@H]1C(C)(C)CCC[C@]21C,,
,CC(C)c1cc(O)c2c(c1)CC[C@H]1C(C)(C)CCC[C@]21C,3.7,IC50 [2]: 27.2 µM; IC50 [3]: 129 µM; IC50 [4]: 27.2 µM; IC50 [5]: 27.2 µM; IC50 [6]: 27.2 µM; IC50 [7]: 27.2 µM; IC50 [8]: 27.2 µM; IC50 [9]: 82.1 µM; IC50 [10]: 27.2 µM
21,CC(C)[C@]1(O)C=C2[C@H](O)C[C@H]3C(C)(C)CCC[C@]3(C)[C@H]2C[C@H]1O,,
16,CC(C)[C@@]1(O)CC[C@H]2C(CC[C@H]3C(C)(C)CCC[C@]23C)[C@H]1O (stereo partly specified),,
,C[C@@H]1O[C@]2(C(C)(C)O)C=C3CC[C@H]4C(C)(C)CCC[C@]4(C)[C@@]31OO2,10.7,
36,CC(C)C1=CC2=CC[C@H]3C(C)(C)CCC[C@]3(C)[C@H]2[C@H](O)C1,,
,C=C[C@]1(C)C=C2CC[C@H]3C(C)(C)CCC[C@]3(C)[C@H]2CC1,10.4,
,C[C@H]1C[C@]2(O)O[C@@]1(C)C=C1CC[C@H]3C(C)(C)CCC[C@]3(C)[C@H]12,11.8,
26,CC(C)[C@@]12CC3=C([C@@H](CO1)O2)[C@@]1(C)CCCC(C)(C)[C@@H]1CC3,,
14,C[C@@H]1OC(=O)C=C2[C@H](O)C[C@H]3C(C)(C)CCC[C@]3(C)[C@H]21,,
25,C[C@@H]1OC(=O)C=C2[C@H](O)C[C@H]3C(C)(C)CCC[C@]3(C)[C@]21O,,
,C=C[C@@]1(C)CC(=O)C2=C(CC[C@H]3C(C)(C)CCC[C@]23C)C1,7.9,
,CC(C)c1cc(O)c2c(c1)[C@H](O)C[C@H]1C(C)(C)CCC[C@]21C,7.2,
15,CC(C)[C@@]1(O)CC[C@H]2C(CC[C@H]3C(C)(C)CCC[C@]23C)[C@@H]1O (stereo partly specified),,
